From patent US20050239813A1, “Pharmaceutical compositions comprising fk506 derivatives and their use for the treatment of allergic diseases” (Sucampo Pharmaceuticals Inc., priority 2002, published 2005)

Tested on: Human patients with a history of allergy
Assay: Allergen challenge of human patients after FK506 eye drops; ocular itching score
Type: in vivo
Description: Human patients with a history of allergy were divided into 5 groups and treated in one eye with eye drop (placebo, 0.01% FK506, 0.03% FK506, 0.06% FK506 or 0.1% FK506), and the other eye with placebo. Each eye drop was administered 4 times per day for seven days and 16 hours after the final instillation, patients were administered allergen-containing eye drops at a concentration predetermined to cause a reaction in the patient. The one hundred patients having a baseline itching score of at lease 3, on a scale of 0 to 4, with 4 being most severe, were evaluated.

**Q.** Which “decrease from baseline itching score versus placebo” value (3 minutes post challenge, all concentrations (0.01%, 0.03%, 0.06%, 0.1% eye drops), 4 times per day for seven days, challenge 16 hours after final instillation) does the source give for `C=CC[C@@H]1/C=C(\C)C[C@H](C)C[C@H](OC)[C@H]2O[C@@](O)(C(=O)C(=O)N3CCCC[C@H]3C(=O)O[C@H](/C(C)=C/[C@@H]3CC[C@@H](O)[C@H](OC)C3)[C@H](C)[C@@H](O)CC1=O)[C@H](C)C[C@@H]2OC` [FK506, 17-allyl-1,14-dihydroxy-12-[2-(4-hydroxy-3-methoxycyclohexyl)-1-methylvinyl]-23,25-dimethoxy-13,19,21,27-tetramethyl-11,28-dioxa-4-azatricyclo[22.3.1.0^4,9]octacos-18-ene-2,3,10,16-tetraone] here?
**A.** statistically significant versus placebo

**Q.** What about the “decrease from baseline itching score: dose response” value (eye drops 0.01%, 0.03%, 0.06% or 0.1% FK506, 4 times per day for seven days, allergen challenge 16 hours after final instillation, itching scale 0 to 4, FIG. 1) of the same compound?
**A.** pronounced dose response
